Results published in patent US8481553B2, “Antimetastatic compounds” (Brigham Young University, priority 2010, dated 2013).

Tested on: MDCK cells
Experiment: HGF-induced epithelial-mesenchymal transition / migration of MDCK cells on transwell filters (crystal violet densitometry)
Format: cell-based
Details: test compound 10 μM, then HGF, 24 hours, percentage value like the untreated controls (unstimulated cells = maximal effect, HGF treated cells without compound = nil effect); for inhibition at 10 µM: Canis lupus familiaris, MDCK
Method: MDCK cells were seeded at confluency into the wells of a transwell filter in DMEM with 10% fetal bovine serum. Cells were cultured for 24 hours. Test compounds, dissolved in DMSO, were added to each test well to a 10 μM final concentration, and then hepatocyte growth factor (HGF) was then added. The MDCK cells were cultured for 24 hours. Concurrently, controls treated with and without HGF and with no test compounds were also prepared.
After post-HGF addition culturing, transwell filters were prepared by repeated washing using ice cold PBS. The cells were then fixed with paraformaldehyde (3.7%) on ice for 15 minutes to the filters. After fixation, the transwell filters were washed repeatedly with PBS followed by staining with crystal violet for 15 minutes. The transwell filters were washed again with distilled water.
The upper surface of the transwell filters were swabbed using a cotton-tipped probe. The filters were photographed using a gel documentation system. Densitometry measurements were made on the test samples and compared with control samples.

SMILES | inhibition at 10 µM | Assay Value
COc1c(OC(C)=O)ccc(/C=C/c2ccc3cccc(OC)c3n2)c1[N+](=O)[O-] [Compound B-14] | 61.1% | –
CCc1ccc(/C=C/c2ccc3cccc(O)c3n2)cc1 [Compound B-26] | 81.1% | –
Cc1ccc(/C=N/NC(=O)COc2ccccc2Br)c(C)c1 [Compound 34] | – | <5%
O=c1[nH]c(SC/C=C/c2ccccc2)nc2sc3c(c12)CCCC3 [Compound A-13] | 90.5% | –
Oc1c(Br)cc(Cl)cc1/C=C/c1ccc2cccc(O)c2n1 [Compound B-27] | 100% | –
O=C(CSc1nc2sc3c(c2c(=O)n1Cc1ccccc1)CCCC3)N1CCCC1 [Compound A-9] | 50% | –
O=c1[nH]c(/C=C/c2ccccc2)nc2sc3c(c12)CCCC3 [Compound A-4] | 90.8% | –
Cc1noc(C)c1CSc1nc2sc3c(c2c(=O)n1-c1ccccc1)CCC3 [Compound A-6] | – | 55.1%
CCOc1ccccc1OCC(=O)N/N=C/c1ccc(O)cc1O [Compound 4] | 32.3% | –
Cc1noc(C)c1CSc1nc2[nH]ncc2c(=O)n1-c1ccccc1 [Compound A-10] | 63.1% | –
COc1cccc(/C=C/c2ccc3cccc(O)c3n2)c1 [Compound B-34] | 51.8% | –
O=C(COc1ccc2ccccc2c1)N/N=C/c1ccccc1Br [Compound 30] | – | <5%
O=C(COc1ccccc1Br)N/N=C/c1cccc(Br)c1 [Compound 28] | – | <5%
Cc1ccc(C)c(OCC(=O)N/N=C/c2ccc(CC(=O)O)cc2)c1C [Compound 25] | – | <5%
C=CCc1ccccc1OCC(=O)N/N=C/c1ccc(Cl)cc1 [Compound 2] | 67.3% | –
O=C(CSc1nc2sc3c(c2c(=O)n1Cc1ccccc1)CCCC3)N1CCCC1 [Compound A-21] | – | <5%
COc1cc(/C=C/c2ccc3cccc(OCc4ccc(Cl)cc4)c3n2)cc(OC)c1OC(C)=O [Compound B-25] | 78.8% | –
Oc1cccc2ccc(/C=C/c3ccc(Cl)c(Cl)c3)nc12 [Compound B-8] | > 5% | –

SMILES | inhibition at 10 µM | Assay Value
CCOc1ccc(/C=C/c2ccc3cccc(OC)c3n2)cc1OC [Compound B-5] | > 5% | –
Cc1ccc(OCC(=O)N/N=C/c2ccccc2)cc1 [Compound 20] | – | <5%
COc1cc(/C=C/c2ccc3cccc(O)c3n2)cc(OC)c1OC [Compound B-35] | < 5% | –
CCOc1cccc(/C=C/c2ccc3cccc(OC)c3n2)c1 [Compound B-10] | 76.1% | –
Cc1ccc(/C=N/NC(=O)COc2cccc(Br)c2)c(C)c1 [Compound 36] | – | <5%
CCC(=O)Oc1c(OC)cc(/C=C/c2ccc3cccc(OC(=O)CC)c3n2)cc1OC [Compound B-24] | 98.1% | –
O=c1[nH]c(NCc2ccccc2)nc2sc3c(c12)CCCC3 [Compound A-2] | 92.2% | –
COc1cccc2ccc(/C=C/c3cccc([N+](=O)[O-])c3)nc12 [Compound B-20] | 92.4% | –
CC1CCc2c(sc3nc(SCC(=O)N4CCOCC4)n(Cc4ccccc4)c(=O)c23)C1 (centres unmarked) [Compound A-20] | – | <5%
COc1cc(/C=C/c2ccc3cccc(O)c3n2)cc(OC)c1O [Compound B-36] | < 5% | –
COc1cc(/C=C/c2ccc3cccc(OCc4ccccc4Cl)c3n2)cc(OC)c1OC [Compound B-17] | 100% | –
Cc1cccc(OCC(=O)N/N=C/c2ccc(O)cc2)c1C [Compound 23] | – | <5%
CC1CCN(C(=O)CSc2nc3sc4c(c3c(=O)[nH]2)CCCC4)CC1 [Compound A-25] | – | <5%
CC1CCc2c(sc3nc(Cc4ccccc4)[nH]c(=O)c23)C1 (centres unmarked) [Compound A-18] | – | <5%
COc1ccccc1OCC(=O)N/N=C/c1ccc(Cl)cc1 [Compound 33] | – | <5%
Cc1ccccc1OCC(=O)N/N=C/c1ccc(F)cc1 [Compound 26] | – | <5%
CCOc1ccccc1OCC(=O)N/N=C/c1ccc(O)c(O)c1 [Compound 15] | 72.8% | –
